Measurements taken from patent US5856310A, “Inhibition of farnesyltransferase” (University of Pittsburgh, priority 1995, dated 1999).
Read-outs that look alike come from different tables or passages of the source. Peptide text beside a SMILES is read from it. * marks the point of attachment. Cbz = O=C(OCc1ccccc1)*

Assays:
[1] = test system: Ras oncogene-transformed EJ3 cells; assay type: cell-based, murine
Experimental: (§1) The ability of the peptides and their bis-carbobenzyloxy methyl ester derivatives (using BBM-CA1 A2 X; BBM-C-AMBA-M as examples) to inhibit tumor cell growth was determined by the well-known MTT assay. Ras oncogene-transformed EJ3 cells (a balbc 3T3 murine fibroblast (A-31) transformed with H-ras oncogene from a human bladder carcinoma) were exposed to various concentrations of peptides, peptidomimetics and their functionalized derivatives. Four days later, the percentage of live cells present relative to control was determined for each drug concentration. The extent of cell proliferation in the absence of drug was used as 100% proliferation.

[2] = molecular target: T1, p21ras farnesyltransferase from EJ3 cells (Mus musculus, UniProt Q61239+Q8K2I1); test: p21ras farnesyltransferase inhibition, enzyme from EJ3 cells; assay type: biochemical, murine
T1 construct: p21ras farnesyltransferase was partially purified from EJ3 cells by DEAE-chromatography; endogenous in cells; host or cells: EJ3 cells (H-ras-transformed Balb/c 3T3 murine fibroblasts)
Experimental: Human colon carcinoma COLO-205 cells (ATCC, Rockville, Md.) were grown to confluency in RPMI containing 10% FBS, 1% penicillin/streptomycin at 37° C and 10% Co2 atmosphere. The cells were homogenized in lysis buffer (10 mM Hepes pH 7.4, 1 mM MgCl2, 1 mM EDTA, 0.1 mM DDT, and 0.1 mM PMSF) and centrifuged at 12,000×g followed by a 60,000×g centrifugation of the supernatant. p21ras farnesyltransferase from 60,000×g supernatant fractions was then partially purified by DEAE-sephacel chromatography where it was eluted with 50 mM Tris (pH 7.5) containing 0.4M NaCl. p21ras farnesyltransferase activity was determined by measuring the amount of [3H]FPP transferred to recombinant p21H-ras as previously described (15,16). p21H-ras was isolated from E. coli strain RRI expressing p21H-ras (Hoffman-LaRoche, Inc.) as described previously (25) except for the last step of purification where HPLC was replaced by DEAE-sephacel chromatography. For peptide inhibition studios, CA1 A2 X peptides and peptidomimetics were premixed with p21ras farnesyltransferase (40 μg) prior to adding the reaction mixture (50 Mm Tris (pH. 7.5), 50 μM ZnCl2, 20 mM KCl, 1 mM DTT, 20 μM p21H-ras, 9 mmol [3H]FPP). After incubation for one hour at 37° C., the reaction was stopped and filtered on glass fibers as described earlier (15,16). […] The results for C-AMBA-M (.quadrature.), CVIM (.circle-solid.), CIIM (Δ), CVVM (.gradient.) and VCIM (.smallcircle.) are indicated in FIG. 1. The data presented is representative of three independent experiments.
The ability of CA1 A2 X tetrapeptides, peptidomimetics and corresponding functionalized derivatives to inhibit p21ras farnesyltransferase from EJ3 cells was determined in vitro as described above (Example 9). p21ras farnesyltransferase was partially purified from EJ3 cells by DEAE-chromatography as described above (Example 9) and incubated with various concentrations of peptides and peptidomimetics. The ability of these drugs to inhibit the transfer of [3H]FPP to recombinant p21ras was determined as described (Example 9).

A-31 cells = test: Cell growth inhibition, MTT assay, A-31 cells; assay type: cell-based, murine; conditions: concentrations of 500 μM, FIG. 7B
Experimental: as §1
An important aspect of the invention is the finding that the antitumor activity of the peptidomimetics of the invention are selective for ras-transformed cells as compared to their non-transformed parent cell line. A-31 is a normal, non-tumorigenic cell line clone from balb murine fibroblasts. EJ3 is a tumorigenic (produces tumors when injected into mice) cell line that was obtained by transforming A-31 cells with H-ras isolated from a human bladder tumor. The ability of BBM-peptides and peptidomimetics to inhibit cell growth of these two related cell lines (A-31 and EJ3) was determined by MTT assay as described above.

[3] = test system: p21ras plasma membrane association in EJ3 cells; test: p21ras membrane association in EJ3 cells (immunoprecipitation, Western blot); assay type: cell-based, murine; conditions: FIG. 6
From the text: This is indicated by FIG. 6. EJ3 cells were exposed to saline, lovastatin, C-AMBA-M or BBM-C-AMBA-M and p21ras immunoprecipitated with the anti-ras antibody Y13-259 (Oncogene Science Inc.). Membrane-bound and cytosolic p21ras were separated by SDS-PAGE and Western blotted with an anti-p21ras antibody (Y13-259). Control cells (saline-treated) contained only membrane-bound p21ras.

[4] = molecular target: T2, p21ras farnesyltransferase from human colon carcinoma (COLO-205) (Homo sapiens, UniProt P49354+P49356); test: p21ras farnesyltransferase activity assay, enzyme from COLO-205; assay type: biochemical; conditions: for inhibition of p21ras farnesyltransferase (in words): human tumor enzyme (COLO-205 and Daudi), concentrations as high as 10 μM
T2 construct: p21ras farnesyltransferase from 60,000×g supernatant fractions was then partially purified by DEAE-sephacel chromatography; endogenous in cells; host or cells: COLO-205 human colon carcinoma cells (cytosolic 60,000×g supernatant, DEAE-sephacel fraction)
Experimental: (§2) Human colon carcinoma COLO-205 cells (ATCC, Rockville, Md.) were grown to confluency in RPMI containing 10% FBS, 1% penicillin/streptomycin at 37° C and 10% Co2 atmosphere. The cells were homogenized in lysis buffer (10 mM Hepes pH 7.4, 1 mM MgCl2, 1 mM EDTA, 0.1 mM DDT, and 0.1 mM PMSF) and centrifuged at 12,000×g followed by a 60,000×g centrifugation of the supernatant. p21ras farnesyltransferase from 60,000×g supernatant fractions was then partially purified by DEAE-sephacel chromatography where it was eluted with 50 mM Tris (pH 7.5) containing 0.4M NaCl. p21ras farnesyltransferase activity was determined by measuring the amount of [3H]FPP transferred to recombinant p21H-ras as previously described (15,16). p21H-ras was isolated from E. coli strain RRI expressing p21H-ras (Hoffman-LaRoche, Inc.) as described previously (25) except for the last step of purification where HPLC was replaced by DEAE-sephacel chromatography. For peptide inhibition studios, CA1 A2 X peptides and peptidomimetics were premixed with p21ras farnesyltransferase (40 μg) prior to adding the reaction mixture (50 Mm Tris (pH. 7.5), 50 μM ZnCl2, 20 mM KCl, 1 mM DTT, 20 μM p21H-ras, 9 mmol [3H]FPP). After incubation for one hour at 37° C., the reaction was stopped and filtered on glass fibers as described earlier (15,16).
(§3) To determine the potency of the novel peptidomimetics relative to their parent tetrapeptides, the potency of CA1 A2 X corresponding to the carboxyl terminus ends of p21 KA -ras, p21 KB -ras and p21N-ras to inhibit p21ras farnesyltransferase from human colon carcinoma (COLO-205) and Burkitt's lymphoma (Daudi) was determined.

[5] = molecular target: T3, p21ras farnesyltransferase from Burkitt's lymphoma (Daudi) (Homo sapiens, UniProt P49354+P49356); test: p21ras farnesyltransferase activity assay, enzyme from Daudi; assay type: biochemical
T3 construct: Partially purified p21ras farnesyltransferase from human tumors; endogenous in cells; host or cells: Daudi Burkitt's lymphoma cells
Experimental: as §2, §3

[6] = Table 2, ras oncogene-transformed cells, read-out: IC50 (uM) Growth Studies
[7] = MTT, four days, FIG. 4A/4B, read-out: EJ3 cell growth inhibition IC50
[8] = Table 2, read-out: IC50 (uM) Farnesyltransferase
[9] = enzyme from EJ3 cells, FIG. 5A/5B, read-out: p21ras farnesyltransferase IC50
[10] = partially purified enzyme from COLO-205, transfer of farnesyl to recombinant p21 H-ras, read-out: IC50 (μM) COLO-205
[11] = partially purified enzyme from Daudi, transfer of farnesyl to recombinant p21 H-ras, read-out: IC50 (μM) Daudi
[12] = read-out: IC50, p21ras farnesyltransferase from Daudi

T3 sequence (P49356 whole entry, one chain of several): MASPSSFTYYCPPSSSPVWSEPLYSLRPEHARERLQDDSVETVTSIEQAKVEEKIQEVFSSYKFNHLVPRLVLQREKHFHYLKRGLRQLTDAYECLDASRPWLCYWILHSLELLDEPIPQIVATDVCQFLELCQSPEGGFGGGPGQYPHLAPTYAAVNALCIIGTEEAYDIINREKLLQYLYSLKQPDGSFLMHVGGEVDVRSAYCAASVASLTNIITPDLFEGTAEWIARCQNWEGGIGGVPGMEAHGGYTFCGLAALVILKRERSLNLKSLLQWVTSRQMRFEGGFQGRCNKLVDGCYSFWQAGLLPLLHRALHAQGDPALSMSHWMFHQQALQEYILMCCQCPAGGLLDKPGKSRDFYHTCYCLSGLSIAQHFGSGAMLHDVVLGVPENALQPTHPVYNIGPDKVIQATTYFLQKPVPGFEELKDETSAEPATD
T1 sequence (Q8K2I1 whole entry, one chain of several): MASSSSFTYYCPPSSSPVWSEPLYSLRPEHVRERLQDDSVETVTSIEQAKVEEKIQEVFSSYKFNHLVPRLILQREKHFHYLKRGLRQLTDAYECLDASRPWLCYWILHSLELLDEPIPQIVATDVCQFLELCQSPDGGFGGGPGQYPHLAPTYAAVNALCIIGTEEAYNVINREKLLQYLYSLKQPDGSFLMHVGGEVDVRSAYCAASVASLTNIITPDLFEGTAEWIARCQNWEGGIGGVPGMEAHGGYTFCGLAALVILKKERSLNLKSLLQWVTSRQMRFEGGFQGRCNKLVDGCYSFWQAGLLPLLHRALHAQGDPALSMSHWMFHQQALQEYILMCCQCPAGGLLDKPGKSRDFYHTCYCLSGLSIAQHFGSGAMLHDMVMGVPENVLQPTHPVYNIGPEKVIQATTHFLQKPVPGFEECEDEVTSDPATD

| IC50 [2, 8] | IC50 [4, 10] | IC50 [5, 11] | Compound | IC50 [1, 6] | other results |
| --- | --- | --- | --- | --- | --- |
| – | – | – | O=C(N[C@@H](CSC(=O)OCc1ccccc1)C(=O)O)OCc1ccccc1 [BB-Cys, N S-DiCBZ-cysteine] | 275 ± 41 µM | – |
| > 100 µM | – | – | COC(=O)[C@H](CCSC)NC(=O)c1cccc(CNC(=O)[C@H](CSC(=O)OCc2ccccc2)NC(=O)OCc2ccccc2)c1 [BBM-C-AMBA-M, N, S-DiCBZ-Cys-AMBA-Met-OCH3] | 12.1 ± 1 µM | IC50 [1, 7]: 10 µM; IC50 ([1]; MTT, selectivity study, FIG. 7A/7B, read-out: EJ3 cell growth inhibition IC50): 20 µM; IC50 [2, 9]: > 100 µM; effect on A-31 cell growth (in words) (A-31 cells): not much affected; inhibition of p21ras plasma membrane association (in words) [3]: inhibited p21ras plasma membrane association |
| > 100 µM | – | – | CC[C@H](C)[C@H](NC(=O)[C@@H](NC(=O)[C@H](CSC(=O)OCc1ccccc1)NC(=O)OCc1ccccc1)C(C)C)C(=O)N[C@@H](CCSC)C(=O)OC [BBM-CVIM] (Cbz-C(Cbz)VIM-OMe) | – | IC50 [2, 9]: > 10 µM |
| – | – | – | CC[C@H](C)[C@H](NC(=O)[C@@H](NC(=O)[C@H](CSC(=O)OCc1ccccc1)NC(=O)OCc1ccccc1)C(C)C)C(=O)N[C@@H](CCSC)C(=O)OC [BBM-VCIM] (Cbz-C(Cbz)VIM-OMe) | 215 ± 66 µM | – |
| – | 0.53 µM | 0.6 µM | N[C@@H](CS)C(=O)NCc1cccc(C(=O)N[C@@H](Cc2ccccc2)C(=O)O)c1 [C-AMBA-F, Cys-AMBA-Phe] | – | IC50 [5, 12]: 0.6 µM |
| – | > 10 µM | > 10 µM | NCCCC[C@H](NC(=O)c1cccc(CNC(=O)[C@@H](N)CS)c1)C(=O)O [C-AMBA-K, Cys-AMBA-Lys] | – | inhibition of p21ras farnesyltransferase (in words) [4]: abolished p21ras farnesyltransferase inhibition activity |
| – | > 10 µM | > 10 µM | CC(C)C[C@H](NC(=O)c1cccc(CNC(=O)[C@@H](N)CS)c1)C(=O)O [C-AMBA-L, Cys-AMBA-Leu] | – | inhibition of p21ras farnesyltransferase (in words) [4]: had no inhibitory activity |
| 3.1 µM | 0.06 µM | – | CSCC[C@H](NC(=O)c1cccc(CNC(=O)[C@@H](N)CS)c1)C(=O)O [C-AMBA-M, Cys-AMBA-Met] | 627 ± 178 µM | increase in potency over CIIM ([4]; COLO-205): 8.8 fold; increase in potency over CVIM ([4]; COLO-205): 3.3 fold; increase in potency over CVVM ([4]; COLO-205): 7.7 fold; IC50 ([4]; read-out: IC50, p21ras farnesyltransferase from COLO-205): 0.06 µM; increase in potency over CIIM ([5]; Daudi): 6.9 fold; increase in potency over CVIM ([5]; Daudi): 1.6 fold; increase in potency over CVVM ([5]; Daudi): 5.1 fold; IC50 [5, 12]: 0.12 µM; IC50 [1, 7]: 1500 µM; IC50 [2, 9]: 2 µM; inhibition of p21ras plasma membrane association (in words) [3]: did not inhibit p21ras plasma association |
| – | 0.53 µM | 0.83 µM | CC[C@H](C)[C@H](NC(=O)[C@@H](NC(=O)[C@@H](N)CS)[C@@H](C)CC)C(=O)N[C@@H](CCSC)C(=O)O [CIIM, reference compound] (H-CIIM-OH) | – | – |
| 0.35 µM | – | – | CC[C@H](C)[C@H](NC(=O)[C@@H](NC(=O)[C@@H](N)CS)C(C)C)C(=O)N[C@@H](CCSC)C(=O)O [CVIM, Cys-Val-Ile-Met, reference compound] (H-CVIM-OH) | – | IC50 [5, 12]: 0.19 µM; IC50 ([2]; enzyme from EJ3 cells, FIG. 5A, read-out: p21ras farnesyltransferase IC50): 0.4 µM |
| – | 0.46 µM | 0.61 µM | CSCC[C@H](NC(=O)[C@@H](NC(=O)[C@@H](NC(=O)[C@@H](N)CS)C(C)C)C(C)C)C(=O)O [CVVM, Cys-Val-Val-Met, reference compound] (H-CVVM-OH) | – | – |
| – | – | – | CC[C@H](C)C(=O)O[C@H]1C[C@@H](C)C=C2C=C[C@H](C)[C@H](CC[C@@H]3C[C@@H](O)CC(=O)O3)[C@H]21 [Lovastatin, reference compound] | – | inhibition of p21ras plasma membrane association (in words) [3]: inhibited p21ras membrane association |
| 4.5 µM | – | – | CC[C@H](C)[C@H](NC(=O)[C@@H](NC(=O)[C@@H](N)CS)C(C)C)C(=O)N[C@@H](CCSC)C(=O)OC [M-CVIM] (HELM PEPTIDE1{C.V.I.M.[CO[*:1]]}$$$$V2.0) | 200 ± 58 µM | – |
| – | 1.42 µM | 1.54 µM | Cys-AMBA-Glu [C-AMBA-E] | – | reduction of ability to inhibit the enzyme relative to Cys-AMBA-Met ([4]; COLO-205): 24 fold; reduction of ability to inhibit the enzyme relative to Cys-AMBA-Met ([5]; Daudi): 13 fold |
| – | > 10 µM | > 10 µM | Ser-AMBA-Met [S-AMBA-M] | – | inhibition of p21ras farnesyltransferase (in words) [4]: did not inhibit |

| Compound | IC50 [2, 8] | IC50 [4, 10] | IC50 [5, 11] | IC50 [1, 6] | other results |
| --- | --- | --- | --- | --- | --- |
| CC[C@H](C)[C@H](NC(=O)[C@H](CS)NC(=O)[C@@H](N)C(C)C)C(=O)N[C@@H](CCSC)C(=O)O [VCIM, reference compound] (H-VCIM-OH) | 40 µM | > 10 µM | > 10 µM | – | IC50 [2, 9]: > 10 µM |
